In patent US10562857B2 (AFASCI, Inc., priority 2015, dated 2020) one finds IC50 and inhibition data, which are given here for 25 compounds.

In the experiment the target is T1, Cav3.2 channel (Homo sapiens, UniProt O95180).
T1 construct: expressed in transfected cells; host or cells: HEK-293, tetracycline inducible expression system (Invitrogen)
Nature of the experiment: Whole-cell patch clamp of T-type Cav3.2 channel expressed in HEK293 cells. It counts as cell-based. The following applies: for IC50: Table 1, tested at at least 4 concentrations, read-out: IC50; for inhibition at 1 µM / inhibition at 3 µM: HEK293, Table 1 primary screening; for inhibition at 3 µM: 3 μM as indicated in cell, read-out: % inhibition at 3 μM. How it is done: Cav3.1, Cav3.2 or Cav3.3 channels were expressed in human embryonic kidney (HEK)-293 cells using a tetracycline inducible expression system (Invitrogen). Cells were maintained in 25 cm^2 tissue culture flasks at 37° C., 5% CO2, and 100% relative humidity in D-MEM/F12 (Dulbecco's Modified Eagle Medium/Nutrient Mixture F-12; Gibco) supplemented with fetal bovine serum (FBS, 10% v/v), sodium pyruvate (0.5 mM, Gibco), penicillin-streptomycin (100 U/mL, 100 μg/mL) and Geneticin® Selective antibiotic (G418; 0.5 mg/mL). Cells were detached from the flask base using a non-enzymatic cell dissociation solution (Cellstripper, Corning), removed and re-seeded on to poly-D-lysine coated glass coverslips in 35 mm dishes. Cells in dishes were further supplemented with G418 at a final concentration of 1 mg/mL and after 24 hours, expression of Cav3.2 was induced with 1 μg/mL tetracycline. The medium for the HEK-293 cells was composed of D-MEM/F-12 (Dulbecco's Modified Eagle Medium/Nutrient Mixture F-12; Gibco, #11330-032) and 15 mM HEPES buffer, with L-glutamine and pyridoxine hydrochloride. It was supplemented with FBS (Fetal Bovine Serum), P/S (Penicillin/Streptomycin) (Gibco, #15140-122), and sodium pyruvate 100 mM (Gibco, #11360-070). At least 24 hours before the assay, expression of the alpha-2-delta-1 and beta2a subunits of the calcium channel were induced with 1 ug/mL tetracycline.
Whole-cell voltage clamp recordings were performed on rat or mouse DRG neurons within 2 days after acutely dissociation or cultured HEK293 cells expressing T-type channels (encoded by Cav3.1, Cav3.2 or Cav3.3 channels). All experiments were performed at room temperature (around 21° C.). Whole-cell currents were recorded using a MultiClamp 700B amplifier and analyzed offline with pCLAMP10.4 software (Molecular Devices, LLC, Sunnyvale Calif., USA). To record calcium currents in DRG and HEK293 cells, the external solution was composed (in mM) of 115 choline-Cl, 30 TEA-Cl, 2 CaCl2, 10 glucose and 10 HEPES (pH 7.3-7.4 adjusted with TEA-OH; osmolality verified as 295 mOsm/kg). The internal solution was composed (in mM) of 125 CsCl, 10 HEPES (acid), 10 EGTA (ethylene glycol tetraacetic acid), 1 CaCl2, 1 MgCl2, 4 MgATP and 0.3 MgGTP (pH 7.3-7.4 adjusted with CsOH; osmolality verified as 295 mOsm/kg). Since the sodium ions were absent in the external solution, tetrodoctoxin was not needed. Calcium currents were recorded at a holding potential of −100 mV and then depolarized to −30 mV for 100 ms to activate either Cav3.1, Cav3.2, or Cav3.3 expressed in HEK cells. An interpulse interval of 10 seconds allowed the channel recovery from inactivation, and achieved stable current recordings. To record sodium (Na^+) currents in DRG neurons, the external solution used the modified Krebs solution specified above. The internal solution was composed (in mM) of 120 CsF, 10 HEPES, 11 EGTA, 1 CaCl2, 1 MgCl2, 10 TEA-Cl, 4 MgATP and 0.3 MgGTP (pH 7.3-7.4 adjusted with CsOH). […] To record potassium currents in DRG neurons, the external solution used the modified Kreb's solution specified above. The internal solution was composed (in mM) of 65 KCl, 80 KF, 5 KOH, 10 EGTA, 2 MgATP (pH 7.3-7.4 adjusted with KOH). Recording electrodes were fabricated using a P-87 puller (Sutter Instrument Co., Novato, Calif., USA). The tip of resistance was 3-4 MQ in bath and the series resistance was less than 10 MΩ after whole cell configuration. All reagents were purchased from Sigma unless specified otherwise. Test compounds were usually applied via a rapid solution exchange system with 8 fine polyplastic tubings (100 μm, OD) glued in a holder in parallel and located closely to the recorded cells. […]

T1 sequence (O95180 whole entry): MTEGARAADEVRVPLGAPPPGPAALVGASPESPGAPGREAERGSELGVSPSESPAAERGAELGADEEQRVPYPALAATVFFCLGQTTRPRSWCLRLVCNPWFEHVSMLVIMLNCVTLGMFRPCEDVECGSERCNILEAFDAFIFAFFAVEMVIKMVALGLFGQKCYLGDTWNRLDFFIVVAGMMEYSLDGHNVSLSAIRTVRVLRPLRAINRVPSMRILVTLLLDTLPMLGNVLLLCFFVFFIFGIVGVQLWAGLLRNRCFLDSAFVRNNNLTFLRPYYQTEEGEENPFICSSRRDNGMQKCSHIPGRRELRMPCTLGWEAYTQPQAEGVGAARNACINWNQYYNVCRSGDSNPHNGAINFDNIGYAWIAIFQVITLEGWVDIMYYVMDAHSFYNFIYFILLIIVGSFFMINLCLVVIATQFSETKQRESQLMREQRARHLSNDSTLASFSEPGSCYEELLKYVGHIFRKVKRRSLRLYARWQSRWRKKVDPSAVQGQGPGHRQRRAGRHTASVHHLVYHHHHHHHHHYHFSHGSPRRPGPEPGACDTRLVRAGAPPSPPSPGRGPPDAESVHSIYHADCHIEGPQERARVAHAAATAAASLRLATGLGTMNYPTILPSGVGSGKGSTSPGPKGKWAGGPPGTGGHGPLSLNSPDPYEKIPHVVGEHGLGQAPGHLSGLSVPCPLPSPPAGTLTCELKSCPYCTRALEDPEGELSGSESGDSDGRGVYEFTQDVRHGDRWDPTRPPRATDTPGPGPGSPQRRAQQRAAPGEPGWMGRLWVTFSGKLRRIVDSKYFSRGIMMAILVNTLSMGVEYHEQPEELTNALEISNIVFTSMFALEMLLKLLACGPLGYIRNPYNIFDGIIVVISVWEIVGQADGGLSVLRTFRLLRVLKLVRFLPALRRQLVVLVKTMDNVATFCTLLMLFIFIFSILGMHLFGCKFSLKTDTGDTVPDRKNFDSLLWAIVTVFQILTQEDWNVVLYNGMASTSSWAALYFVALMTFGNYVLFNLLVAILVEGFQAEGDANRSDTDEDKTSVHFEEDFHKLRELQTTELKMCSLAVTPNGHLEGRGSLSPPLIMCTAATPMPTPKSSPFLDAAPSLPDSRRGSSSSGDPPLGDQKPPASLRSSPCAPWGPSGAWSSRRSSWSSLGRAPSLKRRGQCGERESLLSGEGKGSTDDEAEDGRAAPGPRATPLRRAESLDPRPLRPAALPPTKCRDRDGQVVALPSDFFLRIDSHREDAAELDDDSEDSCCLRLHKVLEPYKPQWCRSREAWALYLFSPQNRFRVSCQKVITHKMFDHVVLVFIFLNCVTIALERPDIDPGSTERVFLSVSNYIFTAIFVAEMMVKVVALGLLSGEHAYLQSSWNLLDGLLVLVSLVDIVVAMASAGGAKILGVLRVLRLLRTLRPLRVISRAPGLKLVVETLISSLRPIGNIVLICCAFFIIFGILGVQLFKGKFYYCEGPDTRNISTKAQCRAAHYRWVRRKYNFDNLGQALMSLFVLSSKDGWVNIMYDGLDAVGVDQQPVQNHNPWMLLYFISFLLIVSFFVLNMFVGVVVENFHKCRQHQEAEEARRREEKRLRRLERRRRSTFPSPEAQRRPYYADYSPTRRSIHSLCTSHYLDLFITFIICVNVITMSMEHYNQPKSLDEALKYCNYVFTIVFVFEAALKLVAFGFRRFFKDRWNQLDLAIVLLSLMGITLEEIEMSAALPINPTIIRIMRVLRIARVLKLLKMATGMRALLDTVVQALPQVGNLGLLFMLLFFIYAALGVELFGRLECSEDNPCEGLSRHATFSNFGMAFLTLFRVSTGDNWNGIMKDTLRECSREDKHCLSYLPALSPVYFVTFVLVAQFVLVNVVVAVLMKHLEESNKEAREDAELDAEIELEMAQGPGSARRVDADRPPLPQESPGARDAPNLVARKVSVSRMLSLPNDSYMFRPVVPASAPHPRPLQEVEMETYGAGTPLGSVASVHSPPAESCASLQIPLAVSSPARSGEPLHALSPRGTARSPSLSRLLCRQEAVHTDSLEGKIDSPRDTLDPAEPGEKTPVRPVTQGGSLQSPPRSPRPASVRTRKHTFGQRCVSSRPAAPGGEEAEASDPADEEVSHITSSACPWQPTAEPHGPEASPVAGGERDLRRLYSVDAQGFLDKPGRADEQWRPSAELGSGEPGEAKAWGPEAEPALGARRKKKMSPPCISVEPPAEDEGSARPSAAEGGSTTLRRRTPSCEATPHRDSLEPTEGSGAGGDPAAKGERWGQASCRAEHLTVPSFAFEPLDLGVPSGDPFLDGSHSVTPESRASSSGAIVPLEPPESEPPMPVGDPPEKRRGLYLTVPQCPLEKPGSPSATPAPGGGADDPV

A word on the IC50: it is the concentration at which inhibition is half-maximal. As to `O=C(NC1CC12CCN(CC(O)c1ccc(F)cc1)CC2)c1cc(F)cc(Cl)c1` (single isomer, unassigned) [Example 139, 3-Chloro-5-fluoro-N-((1R)-6-(2-(4-fluorophenyl)-2-hydroxyethyl)-6-azaspiro[2.5]octan-1-yl)benzamide or 3-Chloro-5-fluoro-N-((1S)-6-(2-(4-fluorophenyl)-2-hydroxyethyl)-6-azaspiro[2.5]octan-1-yl)benzamide], the concentration for half-maximal inhibition (IC50) was 90 nM. As usually defined, the inhibition is the drop in the measured response relative to a control, in per cent. For the compound `CC(C)(C)CCN1CCC2(CC1)CC2NC(=O)c1cccc(Cl)c1` (stereo not shown) [Example 21, 3-Chloro-N-(6-(3,3-dimethylbutyl)-6-azaspiro[2.5]octan-1-yl)benzamide], the inhibition at 1 µM came to 67%. Consider `O=C(NC1CC12CCN(CC(O)c1ccc(C(F)(F)F)cc1)CC2)c1cc(Cl)cc(Cl)c1` (stereo not shown) [Example 59, 3,5-Dichloro-N-(6-(2-hydroxy-2-(4-(trifluoromethyl)phenyl)ethyl)-6-azaspiro[2.5]octan-1-yl)benzamide], for which the IC50 came out at 70 nM. `CC(C)(C)NC(=O)CN1CCC2(CC1)CC2NC(=O)c1cc(F)cc(C(F)(F)F)c1` (stereo not shown) [Example 18, N-{6-[(tert-Butylcarbamoyl)methyl]-6-azaspiro[2.5]octan-1-yl}-3-fluoro-5-(trifluoromethyl)benzamide]: the IC50 was determined as 250 nM.

In the case of `Cc1cc(C)cc(C(=O)NC2CC23CCN(CCC(C)(C)C)CC3)c1` (stereo not shown) [Example 32, N-(6-(3,3-Dimethylbutyl)-6-azaspiro[2.5]octan-1-yl)-3,5-dimethylbenzamide], the IC50 was found to be 290 nM. The same measure, in the same setting: in the case of `O=C(CN1CCC2(CC1)CC2NC(=O)c1cc(F)cc(Cl)c1)c1ccc(C(F)(F)F)cc1` (single isomer, unassigned) [Example 136, (R)-3-Chloro-5-fluoro-N-(6-(2-oxo-2-(4-(trifluoromethyl)phenyl)ethyl)-6-azaspiro[2.5]octan-1-yl)benzamide or (S)-3-Chloro-5-fluoro-N-(6-(2-oxo-2-(4-(trifluoromethyl)phenyl)ethyl)-6-azaspiro[2.5]octan-1-yl) benzamide] it was 260 nM.

Consider `CC(C)(C)C(O)CN1CCC2(CC1)CC2NC(=O)c1cc(Cl)cc(Cl)c1` (stereo not shown) [Example 58, 3,5-Dichloro-N-(6-(2-hydroxy-3,3-dimethylbutyl)-6-azaspiro[2.5]octan-1-yl)benzamide], for which the 50% inhibitory concentration (IC50) worked out at 220 nM. Still for that read-out and setting: in the case of `CC(C)(C)C(O)CN1CCC2(CC1)CC2NC(=O)c1cc(F)cc(Cl)c1` (single isomer, unassigned) [Example 135, 3-Chloro-5-fluoro-N-((1R)-6-(2-hydroxy-3,3-dimethylbutyl)-6-azaspiro[2.5]octan-1-yl)benzamide or 3-Chloro-5-fluoro-N-((1S)-6-(2-hydroxy-3,3-dimethylbutyl)-6-azaspiro [2.5]octan-1-yl) benzamide] it was 210 nM. On the same count and under the same terms, in the case of `CC(C)(C)CCN1CCC2(CC1)CC2CNc1cc(Cl)cc(Cl)c1` (stereo not shown) [Example 94] it was 130 nM. As to `CC(C)(C)NC(=O)CN1CCC2(CC1)CC2NC(=O)c1ccccc1` (stereo not shown) [Example 4, N-(6-(2-(tert-Butylamino)-2-oxoethyl)-6-azaspiro[2.5]octan-1-yl)benzamide], the inhibition at 3 µM worked out at 24.7%. As to `O=C(NC1CC12CCN(CCc1ccc(F)cc1)CC2)c1cc(Cl)cc(Cl)c1` (stereo not shown) [Example 40, 3,5-Dichloro-N-(6-(4-fluorophenethyl)-6-azaspiro[2.5]octan-1-yl)benzamide], the concentration for half-maximal inhibition (IC50) turned out to be 160 nM.

Regarding `O=C(NCC1CCN(CCC2CC2)CC1)c1ccc(Cl)s1` [Example 97, 5-Chloro-N-((1-(2-cyclopropylethyl)piperidin-4-yl)methyl)thiophene-2-carboxamide], the inhibition at 1 µM turned out to be 33%. In the case of `CC(C)(C)CCN1CCC2(CC1)CC2NC(=O)c1cc(F)cc(C(F)(F)F)c1` (stereo not shown) [Example 24, N-(6-(3,3-Dimethylbutyl)-6-azaspiro[2.5]octan-1-yl)-3-fluoro-5-(trifluoromethyl)benzamide], the IC50 amounted to 20 nM. On the same count and under the same terms, in the case of `O=C(NC1CC12CCN(CC1CCOCC1)CC2)c1cc(Cl)cc(Cl)c1` (stereo not shown) [Example 46, 3,5-Dichloro-N-(6-((tetrahydro-2H-pyran-4-yl)methyl)-6-azaspiro[2.5]octan-1-yl)benzamide] it was 150 nM. Turning to `Clc1cc(Cl)cc(NCC2CC23CCN(CCc2ccccc2)CC3)c1` (stereo not shown) [Example 95], testing at 1 µM gave an inhibition of 67%. On to `O=C(NC1CC12CCN(Cc1ccccc1)CC2)c1ccccc1` (stereo not shown) [Example 5, N-(6-Benzyl-6-azaspiro[2.5]octan-1-yl)benzamide], for which the inhibition at 3 µM turned out to be 44%. For `CC(C)(C)CCN1CCC2(CC1)CC2NC(=O)c1cccc(C#N)c1` (stereo not shown) [Example 34, 3-Cyano-N-(6-(3,3-dimethylbutyl)-6-azaspiro[2.5]octan-1-yl)benzamide], the 50% inhibitory concentration (IC50) amounted to 1400 nM.

On to `CC(C)(C)NC(=O)CN1CCC2(CCC2NC(=O)c2cc(Cl)cc(Cl)c2)CC1` (stereo not shown) [Example 71, N-(7-(2-(tert-Butylamino)-2-oxoethyl)-7-azaspiro[3.5]nonan-1-yl)-3,5-dichlorobenzamide], for which the half-inhibitory concentration (IC50) turned out to be 200 nM. Consider `CC(C)(C)CCN1CCC2(CC1)CC2CNC(=O)c1cc(Cl)cc(Cl)c1` (stereo not shown) [Example 88, 3,5-Dichloro-N-((6-(3,3-dimethylbutyl)-6-azaspiro[2.5]octan-1-yl)methyl)benzamide], for which the IC50 stood at 90 nM. Same read-out and setting: in the case of `CC(C)(C)CCN1CCC2(CC1)CC2NC(=O)c1ccc(Cl)s1` (stereo not shown) [Example 27, 5-Chloro-N-(6-(3,3-dimethylbutyl)-6-azaspiro[2.5]octan-1-yl)thiophene-2-carboxamide] it was 550 nM. `CC(C)(C)NC(=O)CN1CCC2(CC1)CC2NS(=O)(=O)c1cc(Cl)cc(Cl)c1` (stereo not shown) [Example 53, N-(tert-Butyl)-2-(1-((3,5-dichlorophenyl)sulfonamido)-6-azaspiro[2.5]octan-6-yl)acetamide] registered an inhibition at 1 µM of 25%. Take `O=C(N[C@H]1CCC12CCN(CCc1ccccc1)CC2)c1ccccc1` [Example 112]: the inhibition at 1 µM stood at 24%. Turning to `O=C(N[C@@H]1CC12CCN(CC(O)c1ccc(C(F)(F)F)cc1)CC2)c1cc(F)cc(Cl)c1` (single isomer, unassigned) [Example 137, 3-Chloro-5-fluoro-N-((1R)-6-(2-hydroxy-2-(4-(trifluoromethyl)phenyl)ethyl)-6-azaspiro[2.5]octan-1-yl)benzamide or 3-Chloro-5-fluoro-N-((1S)-6-(2-hydroxy-2-(4-(trifluoromethyl)phenyl)ethyl)-6-azaspiro[2.5]octan-1-yl)benzamide], the IC50 was determined as 70 nM. The same measure, in the same setting: in the case of `CC(C)(C)NC(=O)CN1CCC2(CC1)CC2NC(=O)C12CC3CC(CC(C3)C1)C2` (stereo not shown) [Example 143, N-(6-(2-(tert-Butylamino)-2-oxoethyl)-6-azaspiro[2.5]octan-1-yl)adamantane-1-carboxamide] it was 290 nM. With `O=C(CN1CCC(CNC(=O)c2ccc(O)cc2)CC1)Nc1ccccc1` [Example 102, 4-Hydroxy-N-((1-(2-oxo-2-(phenylamino)ethyl)piperidin-4-yl)methyl)benzamide], the inhibition at 1 µM is 47%.
